Measured values taken from paper PMC8492687, “An ethylene biosynthesis enzyme controls quantitative variation in maize ear length and kernel yield” (Nature Communications, 2021).

Target: T1, ZmACO2 (Zea mays, UniProt A0A804UDP7)
T1 construct: gene LOC100382364
Test: ethylene production by gas chromatography with flame-ionization detection
Assay type: biochemical
Conditions: 5 mM ascorbate, 20 mM bicarbonate, 0.02 mM iron sulfate, 1 mM DTT, 10% glycerol, MOPS pH 7.2, 30 °C; ACC varied, Michaelis-Menten fit drawn

T1 sequence (A0A804UDP7 1-326): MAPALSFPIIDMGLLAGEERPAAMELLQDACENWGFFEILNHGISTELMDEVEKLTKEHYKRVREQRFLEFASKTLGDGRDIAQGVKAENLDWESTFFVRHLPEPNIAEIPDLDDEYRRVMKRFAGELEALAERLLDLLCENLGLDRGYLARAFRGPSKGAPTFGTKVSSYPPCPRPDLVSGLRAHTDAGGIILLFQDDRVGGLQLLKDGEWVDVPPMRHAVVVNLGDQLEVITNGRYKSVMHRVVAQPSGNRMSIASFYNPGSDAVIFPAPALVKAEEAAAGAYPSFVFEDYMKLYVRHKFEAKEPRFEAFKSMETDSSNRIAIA

Compound: NC1(C(=O)O)CC1 [ACC]
- ethylene production by gas chromatography with flame-ionization detection: The amount of ethylene production catalyzed by ZmACO2 increased exponentially up to an ACC concentration
